Laboratory results reported in ChEMBL document CHEMBL3885861, “Open TG-GATES”.

Species: Rattus norvegicus
Experiment: Open TG-GATES - Regimen: Single
Type: toxicity, organism-based, Sprague-Dawley
Design: regimen Single, gender Male, age 6 weeks
Details: in vivo, po, route gavage; for APTT / Bas / Eos / Fbg / Hb / Ht / Lym / MCH / MCHC / MCV / Mono / Neu / PT / Plat / RBC / Ret / WBC: tissue Blood; for KIDNEY_L / KIDNEY_R / KIDNEY_TOTAL: tissue Kidney; for LIVER: tissue Liver; for ALP / ALT / AST / BUN / CRE / Ca / Cl / DBIL / GLC / IP / K / LDH / Na / PL / RALB / TBIL / TC / TP / gamma-GTP: tissue Plasma
[1] = 5 mg/kg, 3 h, dose level Middle
[2] = 5 mg/kg, 6 h, dose level Middle
[3] = 5 mg/kg, 9 h, dose level Middle
[4] = 5 mg/kg, 24 h, dose level Middle

## O=P1(N(CCCl)CCCl)NCCCO1 (stereo unspecified) [CYCLOPHOSPHAMIDE ANHYDROUS]
2 mg/kg, 24 h, dose level Low
  TERMINAL_BW: 197.9 g
  APTT: 22 s
  Bas: 0%
  Eos: 1%
  Fbg: 284.2 mg/dL
  Hb: 13.3 g/dL
  Ht: 39.7%
  Lym: 82%
  MCH: 21.1 pg
  MCHC: 33.5%
  MCV: 63 fL
  Mono: 2.2%
  Neu: 14.2%
  PT: 17 s
  Plat: 117.1 x10_4/uL
  RBC: 630.8 x10_4/ul
  Ret: 7%
  WBC: 74.3 x10_2/uL
  KIDNEY_L: 0.9 g
  KIDNEY_R: 0.9 g
  KIDNEY_TOTAL: 1.8 g
  LIVER: 9.1 g
  ALP: 1746.6 IU/L
  ALT: 44.6 IU/L
  AST: 72.8 IU/L
  BUN: 17.4 mg/dL
  CRE: 0.2 mg/dL
  Ca: 10.9 mg/dL
  Cl: 106 meq/L
  DBIL: 0 mg/dL
  GLC: 179.6 mg/dL
  IP: 7.5 mg/dL
  K: 4.5 meq/L
  LDH: 207.2 IU/L
  Na: 142.4 meq/L
  PL: 139.6 mg/dL
  RALB: 3 g/dL
  TBIL: 0.006 mg/dL
  TC: 70.6 mg/dL
  TP: 5.5 g/dL
  gamma-GTP: 0.8 IU/L
[1]
  TERMINAL_BW: 186.6 g
  APTT: 22.8 s
  Bas: 0%
  Eos: 0.8%
  Fbg: 290.2 mg/dL
  Hb: 12.9 g/dL
  Ht: 39%
  Lym: 83.6%
  MCH: 21.1 pg
  MCHC: 33.2%
  MCV: 63.7 fL
  Mono: 1.4%
  Neu: 13.6%
  PT: 15.6 s
  Plat: 113 x10_4/uL
  RBC: 611.6 x10_4/ul
  Ret: 8.1%
  WBC: 60.2 x10_2/uL
  KIDNEY_L: 0.8 g
  KIDNEY_R: 0.9 g
  KIDNEY_TOTAL: 1.7 g
  LIVER: 8.3 g
  ALP: 1552.4 IU/L
  ALT: 44.4 IU/L
  AST: 73.4 IU/L
  BUN: 11.2 mg/dL
  CRE: 0.1 mg/dL
  Ca: 10.6 mg/dL
  Cl: 106.4 meq/L
  DBIL: 0 mg/dL
  GLC: 180.6 mg/dL
  IP: 9 mg/dL
  K: 4 meq/L
  LDH: 175.2 IU/L
  Na: 143.8 meq/L
  PL: 137.6 mg/dL
  RALB: 3 g/dL
  TBIL: 0.034 mg/dL
  TC: 81.4 mg/dL
  TP: 5.4 g/dL
  gamma-GTP: 1 IU/L
[2]
  TERMINAL_BW: 189.8 g
  APTT: 22.5 s
  Bas: 0%
  Eos: 0.4%
  Fbg: 311.4 mg/dL
  Hb: 13.1 g/dL
  Ht: 39.4%
  Lym: 78%
  MCH: 21.1 pg
  MCHC: 33.2%
  MCV: 63.6 fL
  Mono: 2.8%
  Neu: 17.8%
  PT: 16.1 s
  Plat: 130.3 x10_4/uL
  RBC: 618.8 x10_4/ul
  Ret: 7.9%
  WBC: 86.9 x10_2/uL
  KIDNEY_L: 0.9 g
  KIDNEY_R: 0.9 g
  KIDNEY_TOTAL: 1.8 g
  LIVER: 8.4 g
  ALP: 1359.6 IU/L
  ALT: 39.6 IU/L
  AST: 66.8 IU/L
  BUN: 8.2 mg/dL
  CRE: 0.1 mg/dL
  Ca: 10.7 mg/dL
  Cl: 107.6 meq/L
  DBIL: 0 mg/dL
  GLC: 172 mg/dL
  IP: 9.5 mg/dL
  K: 4.1 meq/L
  LDH: 162.6 IU/L
  Na: 143.2 meq/L
  PL: 139.4 mg/dL
  RALB: 2.8 g/dL
  TBIL: 0.03 mg/dL
  TC: 77.8 mg/dL
  TP: 5.3 g/dL
  gamma-GTP: 1 IU/L
[3]
  TERMINAL_BW: 193 g
  APTT: 20.2 s
  Bas: 0%
  Eos: 1%
  Fbg: 309 mg/dL
  Hb: 12.6 g/dL
  Ht: 37.9%
  Lym: 71.6%
  MCH: 21.1 pg
  MCHC: 33.3%
  MCV: 63.3 fL
  Mono: 2.6%
  Neu: 24.4%
  PT: 16.3 s
  Plat: 115.7 x10_4/uL
  RBC: 599.6 x10_4/ul
  Ret: 8.6%
  WBC: 57.2 x10_2/uL
  KIDNEY_L: 0.9 g
  KIDNEY_R: 0.9 g
  KIDNEY_TOTAL: 1.8 g
  LIVER: 7.9 g
  ALP: 1360.2 IU/L
  ALT: 35.2 IU/L
  AST: 65.8 IU/L
  BUN: 9 mg/dL
  CRE: 0.1 mg/dL
  Ca: 10.5 mg/dL
  Cl: 106.6 meq/L
  DBIL: 0.002 mg/dL
  GLC: 179.4 mg/dL
  IP: 9.7 mg/dL
  K: 4 meq/L
  LDH: 146.8 IU/L
  Na: 143.6 meq/L
  PL: 129.8 mg/dL
  RALB: 3 g/dL
  TBIL: 0.042 mg/dL
  TC: 76.8 mg/dL
  TP: 5.5 g/dL
  gamma-GTP: 1 IU/L
[4]
  TERMINAL_BW: 203.3 g
  APTT: 22.1 s
  Bas: 0%
  Eos: 1%
  Fbg: 307.6 mg/dL
  Hb: 12.8 g/dL
  Ht: 38.5%
  Lym: 88.4%
  MCH: 21.4 pg
  MCHC: 33.3%
  MCV: 64.1 fL
  Mono: 1.6%
  Neu: 8%
  PT: 16.2 s
  Plat: 134.5 x10_4/uL
  RBC: 600.4 x10_4/ul
  Ret: 7.3%
  WBC: 58.1 x10_2/uL
  KIDNEY_L: 0.9 g
  KIDNEY_R: 0.9 g
  KIDNEY_TOTAL: 1.9 g
  LIVER: 9.4 g
  ALP: 1835.8 IU/L
  ALT: 48.6 IU/L
  AST: 73.2 IU/L
  BUN: 15.4 mg/dL
  CRE: 0.2 mg/dL
  Ca: 10.7 mg/dL
  Cl: 105.2 meq/L
  DBIL: 0.002 mg/dL
  GLC: 180.2 mg/dL
  IP: 8 mg/dL
  K: 4.2 meq/L
  LDH: 156.8 IU/L
  Na: 142.8 meq/L
  PL: 148.4 mg/dL
  RALB: 3 g/dL
  TBIL: 0.014 mg/dL
  TC: 76.2 mg/dL
  TP: 5.5 g/dL
  gamma-GTP: 1 IU/L
15 mg/kg, 3 h, dose level High
  TERMINAL_BW: 195.2 g
  APTT: 21.4 s
  Bas: 0%
  Eos: 0.8%
  Fbg: 291.2 mg/dL
  Hb: 13 g/dL
  Ht: 38.9%
  Lym: 76.2%
  MCH: 21.2 pg
  MCHC: 33.4%
  MCV: 63.4 fL
  Mono: 1.8%
  Neu: 20.2%
  PT: 15.6 s
  Plat: 120 x10_4/uL
  RBC: 613.8 x10_4/ul
  Ret: 8.2%
  WBC: 75.9 x10_2/uL
  KIDNEY_L: 0.9 g
  KIDNEY_R: 0.9 g
  KIDNEY_TOTAL: 1.7 g
  LIVER: 9 g
  ALP: 1506.2 IU/L
  ALT: 38.8 IU/L
  AST: 70.6 IU/L
  BUN: 11 mg/dL
  CRE: 0.1 mg/dL
  Ca: 10.7 mg/dL
  Cl: 105.6 meq/L
  DBIL: 0 mg/dL
  GLC: 179.4 mg/dL
  IP: 9.1 mg/dL
  K: 4.1 meq/L
  LDH: 197.8 IU/L
  Na: 142.6 meq/L
  PL: 136 mg/dL
  RALB: 2.9 g/dL
  TBIL: 0.032 mg/dL
  TC: 71.8 mg/dL
  TP: 5.3 g/dL
  gamma-GTP: 1 IU/L
15 mg/kg, 3 h, dose level Low
  TERMINAL_BW: 191.1 g
  APTT: 16.4 s
  Fbg: 273.4 mg/dL
  Hb: 12.8 g/dL
  Ht: 38.1%
  Lym: 81.6%
  MCH: 21 pg
  MCHC: 33.5%
  MCV: 62.8 fL
  Mono: 2.8%
  Neu: 14.2%
  PT: 13.8 s
  Plat: 112.1 x10_4/uL
  RBC: 608.2 x10_4/ul
  Ret: 8.6%
  WBC: 94.2 x10_2/uL
  KIDNEY_L: 0.8 g
  KIDNEY_R: 0.8 g
  KIDNEY_TOTAL: 1.6 g
  LIVER: 8.5 g
  ALP: 1407.8 IU/L
  ALT: 39 IU/L
  AST: 74.2 IU/L
  BUN: 10.2 mg/dL
  CRE: 0.2 mg/dL
  Ca: 10.9 mg/dL
  DBIL: 0.014 mg/dL
  GLC: 173.8 mg/dL
  IP: 8.1 mg/dL
  K: 4.4 meq/L
  LDH: 64 IU/L
  Na: 141.2 meq/L
  PL: 136.4 mg/dL
  RALB: 2.4 g/dL
  TBIL: 0.056 mg/dL
